Laboratory results reported in US20110178396A1, “Nicotinamide Derivatives” (CRC FOR BIOMEDICAL IMAGING DEVELOPMENT LTD., priority 2008, published 2011).
Each block holds one molecule with its values, some of them ahead of it.

Tests used:
[1] = system: melanoma tumour; details: melanoma tumour bearing mice, cited from earlier work
[2] = system: B16F0 melanoma tumour; test: Biodistribution in B16 melanoma bearing mice; type: in vivo, C57BL/6J mice; details: B16 melanoma bearing mice
Procedure: Animal experiments were performed in compliance with the NHMRC Australian Code of Practice for the care and use of animals for scientific purposes. Female C57BL/6J black and BALB/c nude albino mice of 5 weeks age were obtained from the Animal Resources Centre, Western Australia. B16F0 murine melanoma cells were originally obtained from European Collection of Cell Cultures (UK) and A375 human amelanotic melanoma cells were originally obtained from American Type Culture Collection (USA). Before transplantation, B16F0 and A375 melanoma cells were maintained as a monolayer in RPMI culture medium supplemented with 10% foetal calf serum and antibiotics and passaged with trypsinisation. Early passages were frozen and stored in liquid nitrogen. Cells were passaged to P=10 and then discarded. Frozen aliquots were grown in a monolayer culture to between 80-95% confluence and for transplantation were trypsinised and washed with Ca^2+ and Mg^2+ free phosphate buffered saline (PBS). For inoculation, B16F0 melanoma cells were resuspended in Ca^2+ and Mg^2+ free PBS at 3 or 5×10^6 viable cells per ml and 0.1 ml was subcutaneously injected at the left flank of 6-7 weeks old C57BL/6J mice. Eleven days later, tumours could be palpated in >98% of inoculated animals. A375 human melanoma cells were resuspended at 1×10^7 viablecells per ml and 0.1 ml was injected subcutaneously at the left flank of 6 weeks old BALB/c nude mice and 25-26 days later tumours could be palpated with ˜60% of inoculated animals developing tumours.
Eleven days (B16F0 melanoma) and 25 days (A375 human melanoma) after tumour transplantation, the [^18F]nicotinamides (0.5-1.5 MBq, 100 μl) and [^123I]nicotinamide (0.37-0.74 MBq, 100 μl) derivatives were injected intravenously via the tail vein into mice (15-18 g). Time points of 1, 3, 6, 24, 48, 72 h after injection were chosen for determining the distribution of each compound in various organs and tissues for the iodine-123 labelled compounds and between 15 min and 6 hours (e.g. 15 min, 30 min, 1 h, 2 h, 4 h or 6 h) were chosen for the ^18F-labelled compounds. At defined times post injection, groups of mice (n=5) were weighed, sacrificed by CO2 administration followed by cervical dislocation and dissected. Selected organs were weighed and their radioactivity measured with a γ-counter. The remaining activity in the carcass was also determined in order to obtain the total activity in the mouse at defined time points. The fraction of injected activity (% ID) in the organ was calculated by comparison with suitable dilutions of the injected dose. Then, the radioactivity concentration in the organ (% ID/g) was found by dividing the % ID for each organ by the weight of the organ.

Structure (SMILES): CCN(CC)CCNC(=O)c1ccc([18F])cc1 [structure A]
- reported tumour uptake ([1]; at 2 h): 6.5 % ID/g
- Typical Tumour: Blood ratio [1]: 12

- uptake BLOOD ([2]; 15 min): 2.8 % ID/g
- uptake BONE ([2]; 15 min): 4.8 % ID/g
- uptake BRAIN ([2]; 15 min): 6.2 % ID/g
- uptake EYES ([2]; 15 min): 36.7 % ID/g
- uptake GIT ([2]; 15 min): 7.8 % ID/g
- uptake HEART ([2]; 15 min): 3.7 % ID/g
- uptake KIDNEY ([2]; 15 min): 16.4 % ID/g
- uptake LIVER ([2]; 15 min): 12.2 % ID/g
- uptake LUNGS ([2]; 15 min): 5.0 % ID/g
- uptake MUSCLE ([2]; 15 min): 4.0 % ID/g
- uptake SKIN ([2]; 15 min): 2.7 % ID/g
- uptake SPLEEN ([2]; 15 min): 11.8 % ID/g
- uptake STOMACH ([2]; 15 min): 14.7 % ID/g
- uptake THYROID ([2]; 15 min): 4.5 % ID/g
- uptake TUMOUR ([2]; 15 min): 10.6 % ID/g
- uptake BLOOD ([2]; 1 h): 0.9 % ID/g
- uptake BONE ([2]; 1 h): 3.4 % ID/g
- uptake BRAIN ([2]; 1 h): 1.6 % ID/g
- uptake EYES ([2]; 1 h): 38.0 % ID/g
- uptake GIT ([2]; 1 h): 7.1 % ID/g
- uptake HEART ([2]; 1 h): 1.2 % ID/g
- uptake KIDNEY ([2]; 1 h): 4.0 % ID/g
- uptake LIVER ([2]; 1 h): 4.9 % ID/g
- uptake LUNGS ([2]; 1 h): 1.5 % ID/g
- uptake MUSCLE ([2]; 1 h): 1.2 % ID/g
- uptake SKIN ([2]; 1 h): 1.0 % ID/g
- uptake SPLEEN ([2]; 1 h): 9.2 % ID/g
- uptake STOMACH ([2]; 1 h): 6.8 % ID/g
- uptake THYROID ([2]; 1 h): 2.2 % ID/g
- uptake TUMOUR ([2]; 1 h): 14.6 % ID/g
- uptake BLOOD ([2]; 3 h): 0.2 % ID/g
- uptake BONE ([2]; 3 h): 4.6 % ID/g
- uptake BRAIN ([2]; 3 h): 0.4 % ID/g
- uptake EYES ([2]; 3 h): 36.3 % ID/g
- uptake GIT ([2]; 3 h): 7.1 % ID/g
- uptake HEART ([2]; 3 h): 0.3 % ID/g
- uptake KIDNEY ([2]; 3 h): 0.8 % ID/g
- uptake LIVER ([2]; 3 h): 1.9 % ID/g
- uptake LUNGS ([2]; 3 h): 0.3 % ID/g
- uptake MUSCLE ([2]; 3 h): 0.3 % ID/g
- uptake SKIN ([2]; 3 h): 0.2 % ID/g
- uptake SPLEEN ([2]; 3 h): 2.5 % ID/g
- uptake STOMACH ([2]; 3 h): 1.9 % ID/g
- uptake THYROID ([2]; 3 h): 2.1 % ID/g
- uptake TUMOUR ([2]; 3 h): 17.3 % ID/g
- uptake BLOOD ([2]; 6 h): 0.1 % ID/g
- uptake BONE ([2]; 6 h): 5.6 % ID/g
- uptake BRAIN ([2]; 6 h): 0.1 % ID/g
- uptake EYES ([2]; 6 h): 27.4 % ID/g
- uptake GIT ([2]; 6 h): 3.6 % ID/g
- uptake HEART ([2]; 6 h): 0.2 % ID/g
- uptake KIDNEY ([2]; 6 h): 0.2 % ID/g
- uptake LIVER ([2]; 6 h): 1.0 % ID/g
- uptake LUNGS ([2]; 6 h): 0.2 % ID/g
- uptake MUSCLE ([2]; 6 h): 0.2 % ID/g
- uptake SKIN ([2]; 6 h): 0.9 % ID/g
- uptake SPLEEN ([2]; 6 h): 0.5 % ID/g
- uptake STOMACH ([2]; 6 h): 0.7 % ID/g
- uptake THYROID ([2]; 6 h): 3.2 % ID/g
- uptake TUMOUR ([2]; 6 h): 4.8 % ID/g
Structure (SMILES): CCN(CC)CCNC(=O)c1cccnc1F [[^18F]MEL6, 2-Fluoro-N-[2-(diethylamino)ethyl]nicotinantide]
